Tests used:
Toll-like receptor 7 [1] = target: T1, Toll-like receptor 7 (Homo sapiens, UniProt Q9NYK1); test: Agonist activity at human TLR7 by reporter cell based assay
T1 sequence (Q9NYK1 whole entry): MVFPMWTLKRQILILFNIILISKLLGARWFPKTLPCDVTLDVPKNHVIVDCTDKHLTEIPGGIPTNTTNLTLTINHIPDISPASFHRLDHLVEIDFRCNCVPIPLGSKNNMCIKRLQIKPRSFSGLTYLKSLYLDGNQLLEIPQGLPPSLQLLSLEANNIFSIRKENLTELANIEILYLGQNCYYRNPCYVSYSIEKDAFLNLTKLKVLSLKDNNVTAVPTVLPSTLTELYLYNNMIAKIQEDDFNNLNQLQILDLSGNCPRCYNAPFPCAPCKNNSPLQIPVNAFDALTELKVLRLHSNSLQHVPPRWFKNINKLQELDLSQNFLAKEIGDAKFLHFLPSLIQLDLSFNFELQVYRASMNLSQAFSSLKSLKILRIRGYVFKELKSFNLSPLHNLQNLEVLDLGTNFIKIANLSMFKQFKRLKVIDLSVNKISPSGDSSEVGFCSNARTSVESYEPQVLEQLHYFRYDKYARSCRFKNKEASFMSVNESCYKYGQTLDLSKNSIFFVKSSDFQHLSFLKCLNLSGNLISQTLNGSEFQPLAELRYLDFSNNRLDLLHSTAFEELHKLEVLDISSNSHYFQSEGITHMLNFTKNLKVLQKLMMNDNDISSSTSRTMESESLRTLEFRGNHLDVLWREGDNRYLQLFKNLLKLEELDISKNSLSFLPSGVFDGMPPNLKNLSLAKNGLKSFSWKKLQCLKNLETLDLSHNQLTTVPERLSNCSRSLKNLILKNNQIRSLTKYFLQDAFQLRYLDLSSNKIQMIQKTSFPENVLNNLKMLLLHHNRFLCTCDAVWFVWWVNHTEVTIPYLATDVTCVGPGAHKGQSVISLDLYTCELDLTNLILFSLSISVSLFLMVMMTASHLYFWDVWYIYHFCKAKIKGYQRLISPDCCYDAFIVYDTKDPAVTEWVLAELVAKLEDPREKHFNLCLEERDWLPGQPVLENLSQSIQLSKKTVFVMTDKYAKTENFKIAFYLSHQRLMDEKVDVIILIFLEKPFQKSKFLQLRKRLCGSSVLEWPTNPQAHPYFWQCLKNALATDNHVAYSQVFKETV

Toll-like receptor 8 = target: T2, Toll-like receptor 8 (Homo sapiens, UniProt Q9NR97); test: Agonist activity at human TLR8 in HEK-Blue hTLR8 cells assessed as activation of NFkappaB by SEAP reporter gene based spectrophotometry assay; type: cell-based
T2 sequence (Q9NR97 whole entry): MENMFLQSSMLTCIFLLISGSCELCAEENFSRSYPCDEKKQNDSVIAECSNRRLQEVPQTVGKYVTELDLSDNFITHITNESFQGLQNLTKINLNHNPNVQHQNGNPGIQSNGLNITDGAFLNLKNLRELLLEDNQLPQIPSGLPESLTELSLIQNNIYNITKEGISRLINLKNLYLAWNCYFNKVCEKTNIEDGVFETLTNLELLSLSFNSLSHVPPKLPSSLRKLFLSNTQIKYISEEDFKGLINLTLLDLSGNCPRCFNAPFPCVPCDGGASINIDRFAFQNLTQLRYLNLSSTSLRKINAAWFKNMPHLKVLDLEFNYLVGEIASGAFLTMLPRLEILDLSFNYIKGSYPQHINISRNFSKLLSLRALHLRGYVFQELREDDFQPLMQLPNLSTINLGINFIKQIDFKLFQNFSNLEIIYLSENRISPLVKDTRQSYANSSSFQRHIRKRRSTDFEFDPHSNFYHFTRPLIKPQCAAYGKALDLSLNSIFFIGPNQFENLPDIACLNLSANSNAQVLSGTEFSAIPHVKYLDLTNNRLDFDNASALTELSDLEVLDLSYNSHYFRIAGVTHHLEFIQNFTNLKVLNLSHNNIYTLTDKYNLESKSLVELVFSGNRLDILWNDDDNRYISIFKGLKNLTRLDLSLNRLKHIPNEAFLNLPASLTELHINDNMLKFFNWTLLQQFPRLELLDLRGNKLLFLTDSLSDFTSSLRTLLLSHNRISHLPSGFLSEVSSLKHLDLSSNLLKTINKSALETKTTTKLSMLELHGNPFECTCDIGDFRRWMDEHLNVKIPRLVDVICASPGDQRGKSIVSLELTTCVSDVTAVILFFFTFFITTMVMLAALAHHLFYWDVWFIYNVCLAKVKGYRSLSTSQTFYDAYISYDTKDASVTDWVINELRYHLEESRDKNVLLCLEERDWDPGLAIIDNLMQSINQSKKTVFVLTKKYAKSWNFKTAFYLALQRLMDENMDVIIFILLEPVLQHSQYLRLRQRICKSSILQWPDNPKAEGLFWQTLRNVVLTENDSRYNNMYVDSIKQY

Toll-like receptor 7 [2] = target: T1, Toll-like receptor 7; test: Agonist activity at recombinant human TLR7 transfected in HEK293 cells assessed as induction of SEAP production incubated overnight by SEAP reporter gene based assay; type: cell-based

| Compound | EC50 (Toll-like receptor 7 [1]) [nM] | further results |
| --- | --- | --- |
| CCCC[C@@H](CCO)Nc1nc(N)nc(C)c1Cc1ccc(CC(=O)OCCCCN2CCN(C)CC2)cc1F | 25.1 |  |
| CCCc1nc2c(NS(C)(=O)=O)nc3ccccc3c2s1 |  | EC50 (Toll-like receptor 8; hek-blue htlr8): 10600 nM |
| CCCc1nc2c(NC=O)nc3ccccc3c2s1 |  | EC50 (Toll-like receptor 8): 880 nM |
| CCCCc1nc2c(N)nc3ccccc3c2n1CCCN(Cc1cccc(C(=O)OC)c1)C(=O)CN1CC(O)C1 | 1580 |  |
| CCCc1nc2c(N)nc3ccc(N)cc3c2s1 |  | EC50 (Toll-like receptor 8; hek-blue htlr8): 3880 nM |
| CCCCc1nc2c(N)nc3ccccc3c2n1CCCN(Cc1cccc(C(=O)OC)c1)C(=O)CN1CCC(OC)CC1 | 200 |  |
| CCCCc1nc2c(N)nc3ccccc3c2n1CCCN(Cc1cccc(C(=O)OC)c1)C1CCN(C)CC1 | 316 |  |
| CCCCc1nc2c(N)nc3ccccc3c2n1CCCN(CCCN(C)CC)Cc1cccc(C(=O)OC)c1 | 158 |  |
| COCCc1nc2c(N)nc3ccccc3c2n1CCCN(Cc1ccc(CC(=O)OC)cc1)C(=O)CCN(C)C | 158 |  |
| CCCCc1nc2c(N)nc3ccccc3c2n1CCCN(Cc1cccc(C(=O)OC)c1)C(=O)CN(CCC)CCC | 79.4 |  |
| CCCCc1nc2c(N)nc3ccccc3c2n1CCCN(Cc1cccc(C(=O)OC)c1)C(=O)CN(C)C1CCOCC1 | 126 |  |
| CCCCc1nc2c(N)nc3ccccc3c2n1CCCN(CCCN1CCN(C)CC1)Cc1cccc(C(=O)OC)c1 | 251 |  |
| CCCCc1nc2c(N)nc3ccccc3c2n1CCCN(Cc1cccc(C(=O)OC)c1)C(=O)CN1CCCN(S(C)(=O)=O)CC1 | 631 |  |
| CCC[C@@H](CCO)Nc1nc(N)nc(C)c1Cc1ccc(CN2CCNCC2)cc1OC |  | EC50 (Toll-like receptor 7 [2]): 5.89 nM |
| CCCCc1nc2c(N)nc3ccccc3c2n1CCCN(Cc1cccc(C(=O)OC)c1)C(=O)CN(C)C | 39.8 |  |
| CCCCc1nc2c(N)nc3ccccc3c2n1CCCN(Cc1cccc(C(=O)OC)c1)C(=O)CN1CCN(C)CC1 | 79.4 |  |
| CCCCc1nc2c(N)nc3ccccc3c2n1CCCN(Cc1cccc(C(=O)OC)c1)C(=O)CN1CCCOCC1 | 398 |  |
| CCC[C@@H](CCO)Nc1nc(N)nc(C)c1Cc1ccc(CN2CCCC2)cc1OC |  | EC50 (Toll-like receptor 7 [2]): < 1.95 nM |
| CCCCc1nc2c(N)nc3ccccc3c2n1CCCN(CCCN1CCOCC1)Cc1cccc(C(=O)OC)c1 | 251 |  |
| CCCCc1nc2c(N)nc3ccccc3c2n1CCCN(CCCN(C)C)Cc1cccc(C(=O)OC)c1 | 251 |  |
| CCCCCNc1nc(N)nc(C)c1CCCN(Cc1cccc(CC(=O)OC)c1)C(=O)CN1CCC[C@@H]1C(=O)OC | 631 |  |
| CCC[C@@H](CO)Nc1nc(N)nc(C)c1Cc1ccc(CNC2CNC2)cc1OC |  | EC50 (Toll-like receptor 7 [2]): 380 nM |
| CCCCc1nc2c(N)nc3ccccc3c2n1CCCN(Cc1cccc(C(=O)OC)c1)C(=O)CN1CCN(CCO)CC1 | 501 |  |
| CCCCc1nc2c(N)nc3ccccc3c2n1CCCN(Cc1cccc(C(=O)OC)c1)C(=O)CN1CCCCC1 | 79.4 |  |
| CCC[C@@H](CO)Nc1nc(N)nc(C)c1Cc1ccc(CN(C)C)cc1OC |  | EC50 (Toll-like receptor 7 [2]): 2.29 nM |
| CCCCc1nc2c(N)nc3ccccc3c2n1CCCN(Cc1cccc(C(=O)OC)c1)C(=O)CN1CCCCCC1 | 79.4 |  |
| CCCCc1nc2c(N)nc3ccccc3c2n1CCCN(Cc1cccc(C(=O)OC)c1)C(=O)CN1CCC(C(=O)N(C)C)CC1 | 631 |  |

| Compound | EC50 (Toll-like receptor 7 [1]) [nM] | further results |
| --- | --- | --- |
| CCCCc1nc2c(N)nc3ccccc3c2n1CCCN(Cc1cccc(C(=O)OC)c1)C(=O)CN1CCCN(C(=O)NCC)CC1 | 1260 |  |
| CCCCc1nc2c(N)nc3ccccc3c2n1CCCN(Cc1cccc(C(=O)OC)c1)C(=O)CN1CCC(O)C1 (stereo not drawn) | 398 |  |
| CCC[C@@H](CO)Nc1nc(N)nc(C)c1Cc1ccc(CNCCO)cc1OC |  | EC50 (Toll-like receptor 7 [2]): 95.5 nM |
| CCCC[C@@H](CCO)Nc1nc(N)nc(C)c1Cc1ccc(CC(=O)OCC2CCN(C)CC2)cc1F | 39.8 |  |
| CCCC[C@@H](CCO)Nc1nc(N)nc(C)c1Cc1ccc(CC(=O)OCCCCN(C)C)cc1 | 25.1 |  |
| CCC[C@@H](CCO)Nc1nc(N)nc(C)c1Cc1ccc(Cn2ccnc2)cc1OC |  | EC50 (Toll-like receptor 7 [2]): 2.75 nM |
| CCCCc1nc2c(N)nc3ccccc3c2n1CCCN(Cc1cccc(C(=O)OC)c1)C(=O)CN1CC[C@@H](O)C1 | 398 |  |
| CCCCc1nc2c(N)nc3ccccc3c2n1CCCN(Cc1cccc(C(=O)OC)c1)C(=O)CN(CCO)CCO | 1580 |  |
| CCCCc1nc2c(N)nc3ccccc3c2n1CCCN(Cc1cccc(C(=O)OC)c1)C(=O)CN1CCC(O)CC1 | 501 |  |
| CCCCc1nc2c(N)nc3ccccc3c2n1CCCN(Cc1cccc(C(=O)OC)c1)C(=O)CN1CCCN(C(C)=O)CC1 | 501 |  |
| CCCCCNc1nc(N)nc(C)c1CCCN(Cc1ccc(CC(=O)OC)cc1)C(=O)CC1CCN(C)CC1 | 794 |  |
| CCCCc1nc2c(N)nc3ccccc3c2n1CCCN(Cc1cccc(C(=O)OC)c1)C(=O)CN1CCCN(C)CC1 | 251 |  |
| CCCCc1nc2c(N)nc3ccccc3c2n1CCCN(Cc1cccc(C(=O)OC)c1)C(=O)CN1C[C@@H](C)O[C@@H](C)C1 | 1000 |  |
| CCC[C@@H](CCO)Nc1nc(N)nc(C)c1Cc1ccc(CN2CCN(C)CC2)cc1OC |  | EC50 (Toll-like receptor 7 [2]): < 1.95 nM |
| CCCC[C@@H](CCO)Nc1nc(N)nc(C)c1Cc1ccc(CC(=O)OCCC2CCN(C)CC2)cc1F | 31.6 |  |
| CCC[C@@H](CCO)Nc1nc(N)nc(C)c1Cc1ccc(CN(C)CCOC)cc1OC |  | EC50 (Toll-like receptor 7 [2]): < 1.95 nM |
| CCCC[C@@H](CO)Nc1nc(N)nc(C)c1Cc1ccc(CC(=O)OCCCCN(C)C)cc1 | 1260 |  |
| CCCCc1nc2c(N)nc3ccccc3c2n1CCCN(Cc1cccc(C(=O)OC)c1)C(=O)CN1CCC1 | 251 |  |
| CCCCc1nc2c(N)nc3ccccc3c2n1CCCN(Cc1cccc(C(=O)OC)c1)C(=O)CN1CCCC1 | 63.1 |  |
| CCCCc1nc2c(N)nc3ccccc3c2n1CCCN(Cc1cccc(C(=O)OC)c1)C(=O)CN(C)CCCC | 126 |  |
| CCCCc1nc2c(N)nc3ccccc3c2n1CCCN(Cc1cccc(C(=O)OC)c1)C(=O)CN(C)CCOC | 158 |  |
| CCCCc1nc2c(N)nc3ccccc3c2n1CCCN(Cc1cccc(C(=O)OC)c1)C(=O)CN1CCN(C(C)=O)CC1 | 1260 |  |
| CCCCCNc1nc(N)nc(C)c1Cc1cccc(CC(=O)OCCCCN(C)C)c1 | 31.6 |  |
| CCCC[C@@H](CCO)Nc1nc(N)nc(C)c1Cc1ccc(CC(=O)OCCCCN(C)C)cc1F | 200 |  |
| CCCCCNc1nc(N)nc(C)c1CCCN(Cc1ccc(CC(=O)OC)cc1)C(=O)CN1CCCCC1 | 631 |  |
| CCCCc1nc2c(N)nc3ccccc3c2n1CCCN(Cc1cccc(C(=O)OC)c1)C(=O)CN1CCN(S(C)(=O)=O)CC1 | 794 |  |
